Test results taken from patent US20240374572A1, “METHODS FOR EXTENDING THE LIFESPAN OF CELLS AND ORGANISMS” (priority 2021, published 2024).

Tests used:
[1] = system: accelerated ageing mouse model; assay: Accelerated ageing mouse model; assay type: in vivo
Source text: FIGS. 5A, 5B, 5C, and 5D show the animal study in rats (FIG. 5A: untreated disease group; FIG. 5B treated disease group).
Another aspect provides a method of treating a subject diagnosed to have a premature ageing disease or condition, comprising treating the subject with a therapeutically effective amount of compound I. In some embodiments, the premature ageing disease is Hutchinson-Gilford progeria syndrome. In some embodiments, the premature ageing disease is Werner syndrome. In some embodiments, the premature ageing disease or condition is premature ageing of skin, mucous membranes, scalp and/or hair of the subject. In some embodiments, the method may further include a step of identifying or determining the subject as having premature ageing disease or condition. Procedures of the determination step for premature ageing disease or condition are generally known in the field. As shown in the example section and FIGS. 4-6, the study (accelerated ageing mouse model) analyzed the physical appearance and activities of two groups (with and without the feeding of Compound I, 20 mg/kg daily) over the period of about 1 year.

N2 C. elegans = assay: Lifespan of N2 C. elegans under regular culture conditions; assay type: in vivo, Caenorhabditis elegans; details: FIG. 2A
Source text: In this example, the biological functions of ergothioneine were investigated using (C. elegans as the model system. Using (C. elegans as the model has several prominent advantages, including short life cycle, simple experimental manipulation, and rich collection of publicly available genetic mutants (e.g., Caenorhabditis Genetics Center). In addition, its genome comprises 2/3 of human disease-related genes.
To test the biological effect of ergothioneine, the first set of experiments was to test the toxicity level of ergothioneine on the worm model. In humans, ergothioneine is enriched up to 2 mM concentration in many parts of the body.
(§1) At 150 μM, the lifespan of the wild type worm can be extended by 30-40% (FIG. 2A). Over the last two decades, there is numerous evidence supporting the life-extension effect by caloric restriction from various model systems (yeast, worm, fly, and mouse). Thus, the effect of ergothioneine on worm Eat-2 mutant was also examined.

worm Eat-2 mutant = assay: Lifespan of worm Eat-2 mutant (caloric restriction model); assay type: in vivo, Caenorhabditis elegans; details: FIG. 2B
Description: as §1

[2] = system: primary cortical neuron culture; assay: Oxygen glucose deprivation of primary cortical neuron culture; assay type: cell-based; details: FIG. 5D
N2 worms = assay: Paraquat-induced oxidative stress in N2 worms; assay type: in vivo, Caenorhabditis elegans; details: FIG. 2C
Description: Encouraged by the clear life-extension effect on worm model under regular culture conditions in the above example, the protective effect of ergothioneine under stresses was examined. In the first experiment, the worm was treated with paraquat to induce oxidative stress. Under the paraquat-induced oxidative stress conditions, N2 worms' life span was decreased by nearly 50% (FIG. 2C vs. FIG. 2A).

[3] = system: pancreatic/renal kallikrein (Klk1) related Kallikrein system; assay: RNA-seq analysis of peri-infarct area of the MCAO model; assay type: in vivo, mice; details: FIG. 8
Source text: FIGS. 8A and 8B that the results of RNA-seq analysis of peri-infarct area of the MCAO model.
KLK1 is a key protein in the Kallikrein-Kinin system (KKS). The KKS promotes local blood flow and vasodilation, and may also reduce inflammation and oxidative stress. KLK1 is a serine protease that plays a critical role in regulating blood pressure, blood flow, and microcirculation. It's a secretory product of the salivary glands and the pancreas, and is also found in the kidney. KLK1 has a major function of reducing blood pressure by releasing the peptide hormone Lys-bradykinin (kallidin) from low molecular weight kininogen. This affects muscle relaxation and inflammatory processes. KLK1 also has anti-inflammatory, anti-apoptotic, anti-fibrotic, and anti-oxidative actions.

daf-16 mutant worm = assay: Lifespan of daf-16 mutant worm; assay type: in vivo, Caenorhabditis elegans; details: FIG. 3A
Source text: To address this issue, the large collection of C. elegans mutants in Caenorhabditis Genetics Center was again utilized in this example. Among the mutants examined, the daf-16 mutant results stood out (FIGS. 3A, 3B, and 3C). […] Among genes of the IIS pathway, daf-2 encodes an insulin-like receptor, and it is the starting point of the pathway that eventually leads to daf-16. Daf-16 is the hub, where information from several different pathways merge and then use to regulate many physiological processes. Worm daf-16 mutant has an average life-span that is […] the N2 worm (FIGS. 3A, 3B, and 3C; FIGS. 4-6).

[4] = system: stroke middle cerebral artery occlusion (MCAO) model; assay: Stroke middle cerebral artery occlusion (MCAO) model; assay type: in vivo; details: MCAO mice, vs vehicle
Source text: FIGS. 7A, 7B, 7C, and 7D show the protective effect of ergothioneine on stroke MCAO model (images of tissue sample (FIG. 7A), infarct volume (FIG. 7B), neurological deficit (FIG. 7C), and cerebral blood flow (CBF) (FIG. 7D) of Sham, vehicle, and ergothioneine treated mice).
The MCAO model is a stroke model that uses mice and rats. The model involves inserting a surgical filament into the external carotid artery and threading it into the internal carotid artery. The filament is inserted to block blood flow for a set period of time, usually 30-120 minutes. The filament is then removed to allow reperfusion, resulting in an ischemic stroke. A sham mouse is a control animal used in […]. Sham procedures are performed on a control group participant to ensure they experience the same effects as those who receive a true operation.
As shown, ergothioneine reduces the infarct size by at least 50%. […] As shown, ergothioneine reduces neurological deficit by at least 40%. […] As shown, ergothioneine […] cerebral blood flow by at least 60%.

[5] = through transporter OCTN1; humans; cited from earlier work
N2 worm = assay: Heat shock survival of N2 worms; assay type: in vivo, Caenorhabditis elegans; details: moved from 20° C. to 42° C.; a few hundred micromolar; without compound 3 hours; FIG. 2D
Description: Besides the oxidative stress, the protective effect of ergothioneine for the worm under heat shock conditions was also examined. After the worms were cultured multiple days, they were then moved from 20° C. to 42° C. Under such a heat-shock condition, 50% of the worm died within 3 hours. However, in the presence of a few hundred micromolar concentration of ergothioneine, it extends N2 worm's average survival time from 3 hours to nearly 8-9 hours (FIG. 2D). Therefore, besides its life-extension effects under regular culture conditions, ergothioneine clearly offers protective effects to worms under oxidative stress and heat shock conditions.

[6] = in vivo; cited from earlier work
[7] = system: adhesion molecules VACM-1, ICAM-1, and E-selectin; details: cited from earlier work
[8] = 20 mg/kg daily feeding, about 1 year, treated vs untreated group
[9] = mice, compared to untreated mice, FIG. 5C

**Q.** What does the source list for `C[N+](C)(C)[C@@H](Cc1c[nH]c(=S)[nH]1)C(=O)O` [ergothioneine, Ergothioneine]?
**A.** effect on the ageing process ([1]; 20 mg/kg daily feeding, about 1 year): could effectively slow down the ageing process; average weight [1, 8]: higher average weight; skin condition [1, 8]: more smooth skin condition; physical activity of the untreated group relative to the treated group ([1]; 20 mg/kg daily feeding, about 1 year, words describe the group without treatment): less active physically; extension of maximum lifespan [1, 9]: at least 30%; extension of median lifespan [1, 9]: at least 40%; life-extension effect (N2 C. elegans; 50 μM, N2 C. elegans): robust life-extension effect; lifespan extension (N2 C. elegans; 150 μM, wild type worm): 30-40%; life extension of Eat-2 worm mutant (worm Eat-2 mutant): can further extend the life; cell death caused by oxygen glucose deprivation [2]: reverses cell death; protective effect under oxidative stress (N2 worms): clearly offers protective effects and alleviates the detrimental effects of oxidative stress; regulation of Klk1 related Kallikrein system (RNA level) [3]: up-regulate; life-extension effect in daf-16 mutant (daf-16 mutant worm): the life-extension effect was abolished; reduction of infarct size ([4]; FIG. 7B): at least 50%; reduction of neurological deficit ([4]; FIG. 7C): at least 40%; reduction of cerebral blood flow (CBF) ([4]; FIG. 7D): at least 60%; concentration accumulated in many parts of the body [5]: up to 2 mM; average survival time under heat shock (N2 worm): 8 to 9 h; blood-brain barrier passage [6]: can pass through the blood-brain barrier; expression of adhesion molecules VACM-1, ICAM-1, and E-selectin [7]: decreases the expression
